Patent US20250034523A1, “METHODS OF GENERATING HUMAN COCHLEAR HAIR CELLS” (THE TRUSTEES OF INDIANA UNIVERSITY, priority 2021, published 2025)

Test system: hESC-derived PAX2-nGFP+ otic progenitors
Experiment: ventral/dorsal otic marker expression in otic progenitors (D20 scRNA-seq, D25 immunofluorescence)
Format: cell-based, human
Protocol: PAX2-2A-nGFP/POU4F3-2A-ntdTomat hESCs (passages 22-50) were maintained and passaged in Essential 8 Flex Medium (Thermo Fisher, A2858501) supplemented with 100 μg/ml Normocin (E8fn) on recombinant human Vitronectin-N(Thermo Fisher, A14700)-coated 6-well plates. Human inner ear organoids were derived from hESCs based on the inventors' previous protocol 8.10 with major modifications. Briefly, hESCs were dissociated with StemPro Accutase (Thermo Fisher, A1110501) and distributed at 3500 cells per well onto low-adhesion 96-well U-bottom plates in 100 μL E8fn containing 20 μM Y-27632 (Stemgent, 04-0012-02) and forcibly aggregated at 120 g for 5 minutes. 100 μL of E8fn was added to each well after >4 h of incubation. Induction of non-neural epithelium occurred following 48 h of aggregation, marking differentiation day 0, as follows: aggregates were washed extensively in DMEM:F12 with HEPES buffer (DFH) (Thermo Fisher, 11320033) and transferred to new 96-well U-bottom plates in 100 μL of E6 medium (Thermo Fisher, A1516401) with Normocin (E6n) containing 4 ng mL^−1 FGF-2 (StemCell Technologies, 780003), 10 μM SB-431542 (Stemgent, 04-0010-05), and 2% growth factor reduced (GFR) Matrigel (Corning, 354230). On day 3 of differentiation, 25 μL of E6n containing 50 ng/ml FGF-2 and 200 nM LDN-193189 (Stemgent, 04-0074-02) was added to each well. […]

c1ccc2c(Oc3nc(Nc4ccc(N5CCOCC5)cc4)c4ncn(C5CCCCC5)c4n3)cccc2c1 [PUR, 9H-Purin-6-amine, 9-cyclohexyl-N-[4-(4-morpholinyl)phenyl]-2-(1-naphthalenyloxy)-]
ventral otic marker expression (D20-D25 organoids): not sufficient
expression of SHH pathway genes SULF1, LRP2, GAS1, PTCH1 (D20 otic progenitors): attenuated
